Results reported in patent publication US20120214748A1, “NOVEL PEPTIDES, PROCESS FOR PREPARATION THEREOF, AND USE THEREOF” (priority 2009, published 2012).
Bridge positions count the residues as written; N and C are the ends. Peptide text beside a SMILES is read from it.

Tests used:
[1] = system: alternative pathway of the complement system; experiment: WIELISA complement assay, alternative pathway; format: biochemical; settings: serum, FIG. 7
Protocol: (§1) For measuring we used the so-called WIELISA kit (Euro-Diagnostica AB, COMPL300) developed for the selective measuring of the complement pathways, on the basis of the instructions for use attached to the kit. […] At the same time, the product detected during measuring is not a pathway-selective component, but the last element of the joint section of the activation pathways, the C5-9 complex.
(§2) The serum was diluted according to the prescriptions with the buffer belonging to the given complement pathway, it was incubated for 20 minutes at room temperature, the dilution sequence prepared from peptides was added to it, it was incubated for 20 minutes at room temperature, then it was pipetted into the appropriate wells of a special ELISA plate. In the following, washing, incubation and antibody addition was performed according to the instructions for use. It was incubated for 20 minutes with the substrate, and then the data was read at 450 nm in a spectrophotometer. A parallel belonged to each measuring point, 100% activity was represented by the serum without an inhibitor. The measurements were performed at the same time and on the same plate, from one single melted serum sample.

[2] = system: blood coagulation (thrombin operation); experiment: Thrombin time (TT) in blood plasma; settings: peptide 200 μM, FIG. 6.a
Protocol: (§3) We performed blood coagulation measurements using blood plasma taken from healthy individuals. From the blood obtained through venipuncture and treated with sodium citrate (3.8% wt/vol) the plasma was isolated by centrifugation (2000 g, 15 minutes, Jouan CR412 centrifuge).
(§4) Prothrombin time (PT) testing the extrinsic pathway of blood coagulation was measured on Sysmex® CA-500 (Sysmex, Japan) automatic system using Innovin® Reagent (Dale Behring, Marburg, Germany). Activated partial thromboplastin time (APTT) testing the intrinsic pathway of blood coagulation and thrombin time (TT) directly testing thrombin operation was measured on a Coag-A-Mate® MAX (BioMerieux, France) analyser using TriniClot™ reagent (Trinity Biotech, Wichlow, Ireland) and Reanal™ reagent (Reanal Finechemical, Hungary).
(§5) To examine the effects of peptides on blood coagulation we measured dose dependency, the results are shown on the graphs in FIG. 6. […] On the ordinates time is determined in seconds, while on the abscissas the logarithm of the inhibitor concentration is shown in μM.
(§6) FIG. 6.a illustrates an experiment for measuring thrombin time, in the course of which plasma coagulation (fibrin formation) is initiated by adding thrombin to the plasma. […] The members of this protease cascade are inhibited with peptide used in increasing concentrations (abscissa), and the time needed for coagulation is measured (ordinate).

[3] = system: extrinsic pathway of blood coagulation; experiment: Prothrombin time (PT) in blood plasma; settings: peptide 200 μM, FIG. 6.b
Protocol: as §3, §4, §5, §6

[4] = system: classical pathway of the complement system; experiment: WIELISA complement assay, classical pathway; format: biochemical; settings: serum, FIG. 7
Protocol: as §1, §2

[5] = system: lectin pathway of the complement system; experiment: WIELISA complement assay, lectin pathway; format: biochemical; settings: serum, FIG. 7
Protocol: as §1, §2

Trypsin = molecular target: T1, Trypsin (Bos taurus, UniProt P00760); experiment: Trypsin inhibition on Z-L-Lys-SBzl substrate
T1 sequence (P00760 24-246): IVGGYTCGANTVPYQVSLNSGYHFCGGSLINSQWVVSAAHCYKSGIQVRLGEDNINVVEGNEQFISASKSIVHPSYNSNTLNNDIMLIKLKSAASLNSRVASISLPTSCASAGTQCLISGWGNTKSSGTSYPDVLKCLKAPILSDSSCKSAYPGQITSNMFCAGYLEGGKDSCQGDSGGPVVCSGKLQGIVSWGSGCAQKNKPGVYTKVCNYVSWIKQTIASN

MASP-2 CCP1-CCP2-SP = molecular target: T2, MASP-2 CCP1-CCP2-SP (Homo sapiens, UniProt O00187); experiment: Ki determination with synthetic substrate Z-L-Lys-SBzl on MASP-2; format: biochemical; settings: NG = inhibition could not be measured even at the highest inhibitor concentration used
T2 construct: Human MASP-targets consist of a serine-protease (SP) domain and two complement control protein domains (CCP-1,-2); made in house

Thrombin = Thrombin (Homo sapiens, UniProt P00734); experiment: Thrombin inhibition with Z-Gly-Pro-Arg-pNa substrate; format: biochemical
MASP-1 CCP1-CCP2-SP = molecular target: T3, MASP-1 CCP1-CCP2-SP (Homo sapiens, UniProt P48740); experiment: Ki determination with synthetic substrate Z-L-Lys-SBzl on MASP-1; format: biochemical
T3 construct: Human MASP-targets consist of a serine-protease (SP) domain and two complement control protein domains (CCP-1,-2); made in house
T3 sequence (P48740 449-699 limits assumed): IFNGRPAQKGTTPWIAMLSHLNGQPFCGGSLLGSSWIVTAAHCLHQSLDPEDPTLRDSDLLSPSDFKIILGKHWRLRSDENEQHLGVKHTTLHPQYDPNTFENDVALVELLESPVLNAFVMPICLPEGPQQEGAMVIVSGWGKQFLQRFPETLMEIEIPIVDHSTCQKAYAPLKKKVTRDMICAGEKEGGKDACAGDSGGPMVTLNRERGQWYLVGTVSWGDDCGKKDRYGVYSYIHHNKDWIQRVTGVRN
T3 sequence (P48740 298-448 partner limits assumed): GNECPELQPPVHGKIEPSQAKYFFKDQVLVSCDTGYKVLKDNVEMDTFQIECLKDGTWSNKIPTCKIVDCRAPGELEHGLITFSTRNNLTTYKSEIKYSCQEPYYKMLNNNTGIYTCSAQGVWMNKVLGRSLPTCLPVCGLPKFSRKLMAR

[6] = system: intrinsic pathway of blood coagulation; experiment: Activated partial thromboplastin time (APTT) in blood plasma; settings: peptide 200 μM, FIG. 6.c
Protocol: as §3, §4, §5, §6

T2 sequence (O00187 445-686 limits assumed): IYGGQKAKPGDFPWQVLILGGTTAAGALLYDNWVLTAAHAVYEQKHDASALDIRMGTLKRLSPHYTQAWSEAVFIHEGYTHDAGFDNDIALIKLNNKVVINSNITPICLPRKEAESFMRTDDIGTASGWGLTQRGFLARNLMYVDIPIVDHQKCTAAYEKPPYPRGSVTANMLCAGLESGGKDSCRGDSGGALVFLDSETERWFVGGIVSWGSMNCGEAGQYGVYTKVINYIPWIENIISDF
T2 sequence (O00187 287-444 partner limits assumed): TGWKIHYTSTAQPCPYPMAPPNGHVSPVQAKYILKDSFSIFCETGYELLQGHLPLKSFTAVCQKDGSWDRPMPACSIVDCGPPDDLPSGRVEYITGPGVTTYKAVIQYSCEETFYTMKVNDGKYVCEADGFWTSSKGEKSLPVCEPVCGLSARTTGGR

With `CC[C@H](C)[C@H](NC(=O)[C@@H]1CSSC[C@H](NC(=O)[C@H](Cc2ccc(O)cc2)NC(=O)CN)C(=O)N[C@@H](CO)C(=O)N[C@@H](CCCNC(=N)N)C(=O)N[C@@H](CO)C(=O)N[C@@H](Cc2ccc(O)cc2)C(=O)N2CCC[C@H]2C(=O)N2CCC[C@H]2C(=O)N[C@@H](C(C)C)C(=O)N1)C(=O)N1CCC[C@H]1C(=O)N[C@@H](CC(=O)O)C(=O)O` [M2-6E] (H-GYCSRSYPPVCIPD-OH; disulfide 3-11; N-terminus and C-terminus assumed) the “inhibition of the alternative pathway (C5-9 complex)” value [1] was “neither “S” peptide nor the “NS” peptide inhibited”, the “thrombin time, effect on coagulation” value [2] was “remained near the normal range” and the “prothrombin time, effect on coagulation” value [3] was “remained near the normal range”. The “inhibition of the classical pathway (C5-9 complex)” value [4] was “neither “S” peptide nor the “NS” peptide inhibited”, the “inhibition of the lectin pathway (C5-9 complex)” value [5] was “efficient and specific inhibitors of the lectin pathway” and the Ki (Trypsin) was 1000 nM. For the same molecule, the “activity on trypsin, lower by” value (Trypsin; compared with wild-type SFTI) was 4 orders of magnitude, the Ki (MASP-2 CCP1-CCP2-SP) was 180 nM and the “thrombin inhibition” value (Thrombin) was “very poor thrombin inhibitor”. The Ki (Thrombin; read-out: KI Thrombin) was 550000 nM, the “activity on MASP-1” value (MASP-1 CCP1-CCP2-SP) was “not active on MASP-1” and the “activated thromboplastin time, effect on coagulation” value [6] was “remained near the normal range”.
